The values that follow come from patent US20110118262A1, “Pyrrolidinyl and Piperidinyl Compounds Useful as NHE-1 Inhibitiors” (BOEHRINGER INGELHEIM INTERNATIONAL GMBH, priority 2008, published 2011).

This assay deals with T1, NHE-1 (Homo sapiens, UniProt P19634).
T1 construct: endogenous in cells; host or cells: HT-29
As to the kind of experiment: Evaluation of NHE-1 Inhibition (pHi) in HT-29 cells. Format: cell-based. Conditions: BCECF dye, 50% inhibition of the intracellular pH recovery, read-out: NHE1 HT29 pHi IC50. As to the method:
Evaluation of NHE-1 Inhibition (pHi)
HT-29 cells resuspended in DMEM supplemented with 10% FBS, 1% NEAA, and 1% Penn-Strep are seeded at 10,000 cells/well in collagen coated 384 well plates which are then incubated for 24 hours at 37° C. The next day, the medium is removed and the cells are dye (Invitrogen's BCECF) loaded for 30 minutes at 37° C., washed three times with an acid loading buffer (10 mM NH4Cl, 1.8 mM CaCl2, 90 mM Choline Cl, 5 mM Glucose, 15 mM Hepes, 5 mM KCl, 1 mM MgCl2, adjusted to pH 7.5 with KOH) and further incubated at RT for 30 minutes.
At the end of the incubation, the buffer is removed and 5 uL of fresh acid loading buffer is added to each well to prevent the dessication of the cells. The plate is placed in a Hamamatsu FDSS6000 instrument and candidate compounds are added to the cells.

T1 sequence (P19634 whole entry): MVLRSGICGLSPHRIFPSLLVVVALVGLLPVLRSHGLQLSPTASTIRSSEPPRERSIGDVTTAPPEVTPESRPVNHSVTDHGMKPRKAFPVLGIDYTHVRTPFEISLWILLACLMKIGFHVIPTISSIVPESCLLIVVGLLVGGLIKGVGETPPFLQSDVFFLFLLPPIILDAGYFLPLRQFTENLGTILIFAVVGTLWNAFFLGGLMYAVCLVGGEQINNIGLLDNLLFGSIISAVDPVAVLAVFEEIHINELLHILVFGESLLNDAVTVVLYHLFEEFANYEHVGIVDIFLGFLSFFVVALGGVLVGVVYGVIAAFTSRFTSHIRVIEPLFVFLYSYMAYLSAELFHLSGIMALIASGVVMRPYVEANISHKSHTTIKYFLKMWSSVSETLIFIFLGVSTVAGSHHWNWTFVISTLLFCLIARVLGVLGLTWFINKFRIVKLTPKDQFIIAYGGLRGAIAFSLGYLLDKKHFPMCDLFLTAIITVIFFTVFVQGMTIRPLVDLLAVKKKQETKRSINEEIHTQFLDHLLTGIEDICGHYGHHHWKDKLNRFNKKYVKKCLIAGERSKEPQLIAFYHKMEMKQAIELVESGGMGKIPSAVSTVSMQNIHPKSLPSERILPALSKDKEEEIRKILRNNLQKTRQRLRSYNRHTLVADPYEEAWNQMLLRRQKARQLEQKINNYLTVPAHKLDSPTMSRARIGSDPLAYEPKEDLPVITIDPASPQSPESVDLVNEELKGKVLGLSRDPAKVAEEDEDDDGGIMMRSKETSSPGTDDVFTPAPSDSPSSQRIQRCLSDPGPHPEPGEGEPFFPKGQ

In the case of `N=C(N)NC(=O)c1ccc(C2CCN(C(=O)c3cscn3)CC2)c(C(F)(F)F)c1` [N-{4-[1-(Thiazole-4-carbonyl)-piperidin-4-yl]-3-trifluoromethyl-benzoyl}-guanidine], the IC50 is 0.018 µM.

Regarding `N=C(N)NC(=O)c1ccc(C2CCN(C(=O)c3ccc(F)cc3)CC2)c(C(F)(F)F)c1` [N-{4-[1-(4-Fluoro-benzoyl)-piperidin-4-yl]-3-trifluoromethyl-benzoyl}-guanidine], the IC50 came to 0.11 µM.

`Cc1ccccc1C(=O)N1CCC(c2ccc(C(=O)NC(=N)N)cc2C(F)(F)F)CC1` [N-{4-[1-(2-Methyl-benzoyl)-piperidin-4-yl]-3-trifluoromethyl-benzoyl}-guanidine]: the IC50 turned out to be 0.051 µM.

For `Cc1cc(C2CCN(C(=O)c3cccc(C#N)c3)CC2)c(S(C)(=O)=O)cc1C(=O)NC(=N)N` [N-{4-[1-(3-cyano-benzoyl)-piperidin-4-yl]-5-methanesulfonyl-2-methyl-benzoyl}-guanidine], the IC50 was 0.023 µM.

Turning to `Cc1cc(C2CCN(C(=O)c3ccc(C#N)cc3)CC2)c(C(F)(F)F)cc1C(=O)NC(=N)N` [N-{4-[1-(4-cyano-benzoyl)-piperidin-4-yl]-2-methyl-5-trifluoromethyl-benzoyl}-guanidine], the IC50 worked out at 0.036 µM.

`N=C(N)NC(=O)c1ccc([C@H]2CCN(C(=O)c3ccco3)C2)c(C(F)(F)F)c1` [(R)-N-{4-[1-(Furan-2-carbonyl)-pyrrolidin-3-yl]-3-trifluoromethyl-benzoyl}-guanidine]: the IC50 was determined as 0.028 µM.

Turning to `COCC(=O)N1CCC(c2cc(OC)c(C(=O)NC(=N)N)cc2C(F)(F)F)CC1` [N-{2-Methoxy-4-[1-(2-methoxy-acetyl)-piperidin-4-yl]-5-trifluoromethyl-benzoyl}-guanidine], the IC50 amounted to 0.009 µM.

Regarding `N=C(N)NC(=O)c1ccc(C2CCN(C(=O)C(N)CC3CC3)CC2)c(C(F)(F)F)c1` (stereo not drawn) [N-{4-[1-(2-Amino-3-cyclopropyl-propionyl)-piperidin-4-yl]-3-trifluoromethyl-benzoyl}-guanidine], the IC50 came to 0.019 µM.

For the molecule `Cc1cc(C2CCN(C(=O)c3ccc(C#N)cc3)CC2)c(S(C)(=O)=O)cc1C(=O)NC(=N)N` [N-{4-[1-(4-cyano-benzoyl)-piperidin-4-yl]-5-methanesulfonyl-2-methyl-benzoyl}-guanidine], the IC50 worked out at 0.027 µM.

`N=C(N)NC(=O)c1ccc(C2CCN(C(=O)[C@@H](N)c3ccccc3)CC2)c(C(F)(F)F)c1` [(S)-N-{4-[1-(-2-Amino-2-phenyl-acetyl)-piperidin-4-yl]-3-trifluoromethyl-benzoyl}-guanidine]: the IC50 was determined as 0.021 µM.

`Cc1cc(C2CCN(C(=O)c3ccc(=O)[nH]c3)CC2)c(C(F)(F)F)cc1C(=O)NC(=N)N` [N-{2-Methyl-4-[1-(6-oxo-1,6-dihydro-pyridine-3-carbonyl)-piperidin-4-yl]-5-trifluoromethyl-benzoyl}-guanidine]: the IC50 turned out to be 0.03 µM.

`N=C(N)NC(=O)c1ccc(C2CCN(C(=O)[C@@H](N)CC(=O)O)CC2)c(C(F)(F)F)c1` [(S)-3-Amino-4-[4-(4-guanidinocarbonyl-2-trifluoromethyl-phenyl)-piperidin-1-yl]-4-oxo-butyric acid]: the IC50 was found to be 0.009 µM.

With `Cc1cc(C2CCN(C(=O)C(C)(C)N)CC2)c(C(F)(F)F)cc1C(=O)NC(=N)N` [N-{4-[1-(2-Amino-2-methyl-propionyl)-piperidin-4-yl]-2-methyl-5-trifluoromethyl-benzoyl}-guanidine], the IC50 was found to be 0.01 µM.

For `N=C(N)NC(=O)c1ccc(C2CCN(C(=O)C(N)Cc3ccncc3)CC2)c(C(F)(F)F)c1` (stereo not drawn) [N-{4-[1-(2-Amino-3-pyridin-4-yl-propionyl)-piperidin-4-yl]-3-trifluoromethyl-benzoyl}-guanidine], the IC50 was 0.032 µM.

With `N=C(N)NC(=O)c1ccc(C2CCN(C(=O)c3ccco3)CC2)c(C(F)(F)F)c1` [N-{4-[1-(Furan-2-carbonyl)-piperidin-4-yl]-3-trifluoromethyl-benzoyl}-guanidine], the IC50 was 0.055 µM.

By IC50 is commonly meant the concentration that inhibits the measured activity by half.
